Source: article PMC4666608, “Metabolic Profiling of Chicken Embryos Exposed to Perfluorooctanoic Acid (PFOA) and Agonists to Peroxisome Proliferator-Activated Receptors” (PLoS ONE, 2015)
Marks after values point to notes of the source that are not given here.

System: chicken embryos
Test: Metabolic profiling of allantoic fluid (GC-MS, LC-MS, OPLS-DA)
Format: in vivo, Gallus gallus domesticus
Conditions: for Mean concentration relative to control, feature Win004_C08 / Mean concentration relative to control, feature Win005_C07 / Mean concentration relative to control, feature Win008_C06 / Mean concentration relative to control, feature Win022_C01 / Mean concentration relative to control, feature Win023_C06 / Mean concentration relative to control, feature win006_C01 / Mean concentration relative to control, feature Win008_C07 / Mean concentration relative to control, feature Win023_C03 / Mean concentration relative to control, feature Win007_C09 / Mean concentration relative to control, feature Win008_C05 / Mean concentration relative to control, feature Win018_C04 / Mean concentration relative to control, feature Win007_C03 / Mean concentration relative to control, feature Win042_C02 / Mean concentration relative to control, feature Win009_C03 / Mean concentration relative to control, feature Win008_C04 / Mean concentration relative to control, feature Win005_C03 / Mean concentration relative to control, feature Win013_C05: GC; for Mean concentration relative to control, feature Win008_C07: tentative 1-Aminocyclopropanecarboxylic acid; for Mean concentration relative to control, feature Win023_C03: tentative 2-Oxoglutaric acid; for Mean concentration relative to control, feature Win007_C09 / Mean concentration relative to control, feature Win008_C05: tentative 2-Oxovaleric acid; for Mean concentration relative to control, feature Win018_C04: tentative 3-Amino-2-piperidone; for Mean concentration relative to control, feature Win007_C03: tentative 3-Hydroxybutanoic acid; for Mean concentration relative to control, feature Win042_C02: tentative Cystathionine; for Mean concentration relative to control, feature Win009_C03: tentative Ketoleucine; for Mean concentration relative to control, feature Win008_C04: tentative Malonic acid; for Mean concentration relative to control, feature Win005_C03: tentative Oxalic acid; for Mean concentration relative to control, feature Win013_C05: tentative Succinic acid
Description: Controls were injected with 20 μL vehicle only (DMSO).
Plasma was collected and stored at -70°C.
Metabolites in allantoic fluid and blood plasma were analyzed using gas chromatography-mass spectrometry (GC-MS) and liquid chromatography-mass spectrometry (LC-MS) as described in S1 Methods. Prior to GC-MS and LC-MS analysis, allantoic fluid (100 μL) and blood plasma (50 μL) were extracted. To each sample, 900 μL (allantoic fluid) or 450 μL (blood plasma) of extraction buffer (90/10 v/v methanol:water) including all internal standards were added. Standards for GC-MS were proline, succinic acid, glutamic acid, salicylic acid, alpha-ketoglutarate, putrescine, myristic acid, hexadecanoic acid, cholesterol, and sucrose. Standards for LC-MS were Val-Tyr-Val, Leu-enkephalin, sulfadimethoxine and reserpine. Samples were homogenized by shaking in a bead mill at a frequency of 30 Hz for 3 minutes and proteins were precipitated at +4°C on ice. The samples were centrifuged at +4°C, 14000 rpm, for 10 min. Then, 200 μL supernatant was transferred to a GC microvial and 200 μL was transferred to an LC microvial, and solvents were evaporated. Samples from the four replicate experiments were analyzed using in chronological order and within each replicate experiment the run order of the individual samples was randomized.
Multivariate statistical analyses of metabolite profiles were performed using the software package SIMCA-P version 13.0 (Umetrics, Umeå, Sweden). Data was centered and scaled to variance 1 (UV scaling) prior to modelling. To reduce unintended systematic variation caused by sample processing and instrument drift, GC-MS and LC-MS metabolite amounts (expressed as the area under the chromatographic peak) were normalized by Orthogonal Partial Least Squares analysis (O2PLS) prior to multivariate data analysis. O2PLS finds common (predictive) and unique (orthogonal) variation in two data matrices. If applied to find the common variation between the data matrix containing the measured metabolite concentrations and a matrix containing only the internal standards, the only common (predictive) variation expected is due to the unintended systematic variation. By deleting the contribution of the predictive latent variables, that variation can be removed from the data. Models obtained after this normalization contain in general less latent variables, and this simplification helps when deciding on the number of latent variables to be used. Following normalization, GC-MS and LC-MS data were analyzed together. Initially, a global Principal Component Analysis (PCA) was performed to get an overview of groups and trends and to identify outliers. Projections to latent structures by means of Orthogonal Partial Least Squares Discriminant Analysis (OPLS-DA) was used to model the relationship between the X-matrix (metabolite concentrations) and the Y matrix (class, i.e. exposure group or sex), and to find x-variables that were related to class belonging. OPLS-DA is a supervised prediction and regression method that rotates the projection plane to find the maximum covariance between the data and the class assignment. All groups were first analyzed together in a 5-class OPLS-DA and then each exposure group was analyzed against the control group in a 2-class OPLS-DA. Sex differences were analyzed both using the whole data set and in each group separately using 2-class OPLS-DA, with females and males as the two classes. Only variables with 80% or more nonzero values were included in the statistical models. […] The validity of each model was also checked using CV-ANOVA (ANOVA of the cross-validated residuals). A significance level of p < 0.05 was used. For each model, R ^2 X, R ^2 Y and Q ^2 values were calculated, where R ^2 X is a measure of the fraction of x variation modeled in the extracted latent variables, R ^2 Y is a measure of the fraction of y variation modeled and Q ^2 is an estimate of the predictive ability of the model and is calculated by cross-validation. […]

## O=C(O)C(F)(F)C(F)(F)C(F)(F)C(F)(F)C(F)(F)C(F)(F)C(F)(F)F [PFOA, perfluorooctanoic acid]
PFOA 50 μg/egg
  Mean concentration relative to control, feature Win004_C08: 1.0
  Mean concentration relative to control, feature Win005_C07: 1.0
  Mean concentration relative to control, feature Win008_C06: 1.0
  Mean concentration relative to control, feature Win022_C01: 1.0
  Mean concentration relative to control, feature Win023_C06: 0.8
  Mean concentration relative to control, feature win006_C01: 1.0
  Mean concentration relative to control, feature Win008_C07: 1.1
  Mean concentration relative to control, feature Win023_C03: 1.0
  Mean concentration relative to control, feature Win007_C09: 1.0
  Mean concentration relative to control, feature Win008_C05: 1.0
  Mean concentration relative to control, feature Win018_C04: 1.0
  Mean concentration relative to control, feature Win007_C03: 1.0
  Mean concentration relative to control, feature Win042_C02: 1.1
  Mean concentration relative to control, feature Win009_C03: 0.9
  Mean concentration relative to control, feature Win008_C04: 1.1
  Mean concentration relative to control, feature Win005_C03: 0.9
  Mean concentration relative to control, feature Win013_C05: 1.0
PFOA 250 μg/egg
  Mean concentration relative to control, feature Win004_C08: 1.0
  Mean concentration relative to control, feature Win005_C07: 1.0
  Mean concentration relative to control, feature Win008_C06: 1.2
  Mean concentration relative to control, feature Win022_C01: 1.1
  Mean concentration relative to control, feature Win023_C06: 1.1
  Mean concentration relative to control, feature win006_C01: 1.0
  Mean concentration relative to control, feature Win008_C07: 1.0
  Mean concentration relative to control, feature Win023_C03: 1.1
  Mean concentration relative to control, feature Win007_C09: 1.0
  Mean concentration relative to control, feature Win008_C05: 1.0
  Mean concentration relative to control, feature Win018_C04: 1.1
  Mean concentration relative to control, feature Win007_C03: 1.0
  Mean concentration relative to control, feature Win042_C02: 1.3
  Mean concentration relative to control, feature Win009_C03: 1.0
  Mean concentration relative to control, feature Win008_C04: 1.1
  Mean concentration relative to control, feature Win005_C03: 0.9
  Mean concentration relative to control, feature Win013_C05: 1.1
LC, PFOA 50 μg/egg
  Mean concentration relative to control, feature 134.0239@1.1350567: 1.2
  Mean concentration relative to control, feature 145.0538@3.072527: 1.0
  Mean concentration relative to control, feature 147.0328@3.0722888: 1.0
  Mean concentration relative to control, feature 160.0323@1.1950632: 1.0
  Mean concentration relative to control, feature 173.0488@3.0734746: 1.0
  Mean concentration relative to control, feature 176.0952@1.3890611: 0.6*
  Mean concentration relative to control, feature 178.0428@1.7582192: 0.9
  Mean concentration relative to control, feature 180.0048@4.421465: 1.0
  Mean concentration relative to control, feature 189.1159@1.9209185: 0.9
  Mean concentration relative to control, feature 197.0639@2.1181405: 1.0
  Mean concentration relative to control, feature 201.012@3.046474: 1.0
  Mean concentration relative to control, feature 202.0429@2.9548414: 1.0
  Mean concentration relative to control, feature 205.0533@4.421879: 1.0
  Mean concentration relative to control, feature 214.016@2.1190732: 1.1
  Mean concentration relative to control, feature 226.0107@4.421457: 1.0
  Mean concentration relative to control, feature 236.0816@3.0720985: 1.0
  Mean concentration relative to control, feature 241.0551@2.3510706: 0.9
  Mean concentration relative to control, feature 243.1118@2.1537287: 1.0
  Mean concentration relative to control, feature 244.9972@4.421603: 1.0
  Mean concentration relative to control, feature 245.1563@2.2907295: 0.8*
  Mean concentration relative to control, feature 250.0981@3.072492: 1.0
  Mean concentration relative to control, feature 262.0978@2.7961144: 1.0
  Mean concentration relative to control, feature 263.0855@2.2847009: 1.0
  Mean concentration relative to control, feature 270.0441@1.1407775: 0.8
  Mean concentration relative to control, feature 278.0928@3.0723689: 1.0
  Mean concentration relative to control, feature 279.1248@2.796395: 1.0
  Mean concentration relative to control, feature 280.1425@2.730277: 1.0
  Mean concentration relative to control, feature 288.1166@2.9551322: 1.1
  Mean concentration relative to control, feature 289.1012@3.249983: 1.0
  Mean concentration relative to control, feature 289.173@7.5030584: 1.1
  Mean concentration relative to control, feature 294.1242@2.3692534: 1.0
  Mean concentration relative to control, feature 302.0508@3.0722616: 1.0
  Mean concentration relative to control, feature 305.1682@5.353517: 0.8*
  Mean concentration relative to control, feature 305.1684@5.2955093: 0.8
  Mean concentration relative to control, feature 308.073@4.4211636: 1.0
  Mean concentration relative to control, feature 310.1181@1.5090439: 1.0
  Mean concentration relative to control, feature 316.0389@3.0725708: 1.0
  Mean concentration relative to control, feature 320.0626@3.0729218: 1.0
  Mean concentration relative to control, feature 325.1114@2.1190624: 0.9
  Mean concentration relative to control, feature 325.1115@2.3554378: 0.9
  Mean concentration relative to control, feature 333.1335@2.8639288: 0.9
  Mean concentration relative to control, feature 333.2005@6.5291867: 0.9
  Mean concentration relative to control, feature 335.1866@4.508565: 1.0
  Mean concentration relative to control, feature 337.1651@1.8737898: 0.9
  Mean concentration relative to control, feature 344.1424@2.348947: 0.9
  Mean concentration relative to control, feature 348.0553@3.0730357: 1.0
  Mean concentration relative to control, feature 349.1651@2.4087605: 0.9
  Mean concentration relative to control, feature 357.1997@6.9691257: 0.9
  Mean concentration relative to control, feature 371.1513@3.0009465: 1.0
  Mean concentration relative to control, feature 375.1819@3.672254: 0.9
  Mean concentration relative to control, feature 394.167@3.9552917: 0.8
  Mean concentration relative to control, feature 414.1482@2.118972: 1.0
